Earlier results on five compounds are cited in patent US10729636B2, “Compositions comprising peptide [sequence]” (NURITAS LIMITED, priority 2016, dated 2020).

Where two headings read alike, the source gives them in different places.

The conditions of series [1]: cited from earlier work.
The conditions of series [2]: humans who took more vitamin E on a regular basis vs those who took less; study on nurses; cited from earlier work.
Series [3] concerns lipoproteins. Particulars: binding to lipoproteins; cited from earlier work.

`CCNC(=O)[C@@H]1CCCN1C(=O)[C@H](CCCNC(=N)N)NC(=O)[C@H](CC(C)C)NC(=O)[C@@H](COC(C)(C)C)NC(=O)[C@H](Cc1ccc(O)cc1)NC(=O)[C@H](CO)NC(=O)[C@H](Cc1c[nH]c2ccccc12)NC(=O)[C@H](Cc1cnc[nH]1)NC(=O)[C@@H]1CCC(=O)N1` [buserelin]: in series [1] (in words), the half-life result is “much longer”.
Take `NC(=O)CC[C@@H]1NC(=O)[C@H](Cc2ccccc2)NC(=O)[C@H](Cc2ccc(O)cc2)NC(=O)[C@@H](N)CSSC[C@@H](C(=O)N2CCC[C@H]2C(=O)N[C@@H](CCCN=C(N)N)C(=O)NCC(N)=O)NC(=O)[C@H](CC(N)=O)NC1=O` [vasopressin]: in series [1] (in humans), the half-life is 10 to 35 min.
In the case of vitamin E, the “lower incidence of heart disease” value in series [2] is 41%.
For the compound gonadotropin-releasing hormone, in series [1] (in words), the half-life result is on record as “very short”.
Take `C[C@@H](O)[C@@H]1NC(=O)[C@H](CCCCN)NC(=O)[C@@H](Cc2c[nH]c3ccccc23)NC(=O)[C@H](Cc2ccccc2)NC(=O)[C@@H](NC(=O)[C@H](N)Cc2ccccc2)CSSC[C@@H](C(=O)N[C@H](CO)[C@@H](C)O)NC1=O` [octreotide]: the half-life result in series [1] (in humans) was “about 100 min”. The free fraction (fraction unbound) in series [3] is recorded as 0.65.
